# Reference: publication PMC8142021 (International Journal for Parasitology: Drugs and Drug …, 2021)
# “Also recorded” adds a separate entry of the source.
# Key:
# [1] = Determination of aqueous solubility; assay type: physicochemical; settings: phosphate buffer, pH 7, aqueous buffer, thermodynamic from solid
# [2] = tested on: L. infantum axenic amastigotes; test: Axenic amastigote assay; assay type: cell-based, Leishmania infantum
# [3] = tested on: L. infantum intracellular amastigotes in U937 macrophages; test: In vitro macrophage infection and intracellular amastigote assay; assay type: cell-based, Leishmania infantum; settings: infected U937 macrophages, 20 μM
# [4] = ref Vandermeulen et al., 2006; cited from earlier work
solubility thermodynamic at 72 h [1],SMILES,activity against intracellular amastigotes (in words) [3],also measured
55 µg/mL,"COc1ccc(NS(=O)(=O)c2ccc(N)cc2)cc1OC [Compound 26, 4-Amino-N-(3,4-dimethoxyphenyl)benzenesulfonamide]",–,–
–,"COc1ccc(S(=O)(=O)Nc2cc(OC)c(NC(=O)CCl)cc2OC)cc1 [Compound 129, 2-Chloro-N-(2,5-dimethoxy-4-((4-methoxyphenyl)sulfonamido)phenyl)acetamide]",active; also recorded: infection clearly interrupted,"Leishmania infantum Axenic amastigotes IC50 (μM) ([2]; 48 h treatment, XTT): sub-micromolar"
1890 µg/mL,"COc1ccc(S(=O)(=O)Nc2c(C(=O)Nc3c(C(=O)O)cc(OC)c(OC)c3OC)cc(OC)c(OC)c2OC)cc1 [Compound 63B, 3,4,5-trimethoxy-2-(3,4,5-trimethoxy-2-((4-methoxyphenyl)sulfonamido)benzamido)benzoic acid]",–,–
–,"COc1ccc(S(=O)(=O)N(Cc2ccccc2)c2ccc(OC)nc2)cc1 [Compound 279, N-benzyl-4-methoxy-N-(6-methoxypyridin-3-yl)benzenesulfonamide]",inactive,–
–,C[C@@H]1[C@H](O)[C@@H](C)/C=C/C=C/C=C/C=C/C=C/C=C/C=C/[C@H](O[C@@H]2O[C@H](C)[C@@H](O)[C@H](N)[C@@H]2O)C[C@@H]2O[C@](O)(C[C@@H](O)C[C@@H](O)[C@H](O)CC[C@@H](O)C[C@@H](O)CC(=O)O[C@H]1C)C[C@H](O)[C@H]2C(=O)O [Amphotericin B],–,aqueous solubility [4]: 1 µg/mL
–,"COc1ccc(S(=O)(=O)Nc2cc(C#N)ccc2OS(=O)(=O)c2ccc(OC)cc2)cc1 [Compound 276B, 4-cyano-2-((4-methoxyphenyl)sulfonamido)phenyl 4-methoxybenzenesulfonate]",active,Selectivity index Axenic amastigotes ([2]; IC50 cellular cytotoxicity (HeLa)/IC50 antileishmanial activity): 11.5
118 µg/mL,"COc1cc(N)c(NS(=O)(=O)c2ccc(N(C)C)cc2)cc1OC [Compound 35, N-(2-amino-4,5-dimethoxyphenyl)-4-(dimethylamino)benzenesulfonamide]",–,–
